Laboratory results as given in US7632816B2, “Treatment of Alzheimer amyloid deposition” (New York University, priority 2003, dated 2009).
Entries after “also recorded” stand apart in the source; their conditions may differ. Square brackets hold non-standard residues; d marks the D form. Peptide text beside a SMILES is read from it.

What was measured:
[1] = design: species or system mice; details: mouse, in vivo
Procedure: Blood samples were collected at given time points. Serum was separated from plasma by centrifugation at 10,000×g for 10 minutes. The trichloroacetic (TCA) acid precipitation method was used to assess the amount of radiolabeled peptide present in the serum (Yi et al., “Amyloid β40/42 Clearance Across the Blood-brain Barrier Following Intra-ventricular Injections in Wild-type, apoE Knock-out and Human apoE3 or E4 Expressing Transgenic Mice,” J. Alz. Dis. 3:23-30 (2001); Mackic et al., “Transport Across the Blood-brain Barrier and Differential Cerebrovascular Sequestration of Circulating Alzheimer's Amyloid-β Peptide in Aged Rhesus Versus Aged Squirrel Monkeys,” Vascul. Pharmacol. 38:303-313 (2002); which are hereby incorporated by reference in their entirety). A 30% stock solution of bovine albumin (Sigma, St. Louis, Mo.) in PBS was added to serum samples to obtain a final albumin solution of 5%, which was thoroughly mixed. Serum samples were then precipitated with TCA (final concentration of TCA was 15%) and centrifugated at 25,000×g in a Beckmann TL-100 Ultracentrifuge. Radioactivity was assessed in the pellet fraction using a Beckman 4000 gamma counter. Serum level of ^125I-Aβ12-28P following intranasal peptide administration was assessed in another six wild type C57BL6J mice. Under ketamine/xylazine anesthesia 80 μg of radiolabeled peptide (in 100 μl of PBS) was administered into the nasal cavity. Ten 10 μl drops were instilled into both nostrils alternatively over five minutes. Serum samples were collected and radioactivity in TCA precipitated pellets was measured as described above. The obtained data was transformed into percentage values compared to serum radioactivity following intravenous injections at t=0 as 100%. The mean±standard deviation from all tested animals was plotted in FIG. 4 and analyzed by a one phase exponential decay nonlinear regression fit algorithm using GraphPad Prism v4.0.
At t=0, the serum level was equal to about 40% of the level achieved after administration of the same amount of peptide intravenously.

[2] = In vivo toxicity test in wild type mice; details: 1 mg i.p. three times per week for four weeks
Procedure: (§1) Initial testing of Aβ12-28P toxicity in vivo was performed on five wild type C57BL6 mice which received intraperitoneal (“i.p.”) injections of 1 mg of Aβ12-28P diluted in 0.5 mL of sterile PBS three times per week for four weeks. […] Signs of toxicity included change in body weight, physical appearance, measurable clinical signs, unprovoked behavior and response to external stimuli were not noticed. After one month, the animals were sacrificed and samples were taken from the brain, liver, gut, spleen, kidney and heart, for hematoxylin and eosin staining. […] The first administration of Aβ12-28P was begun at four months of age, at which time the APP^K670N/M671L/PS1^M146L mice already have significant numbers of Aβ lesions (Wengenack et al., “Quantitative Histological Analysis of Amyloid Deposition in Alzheimer's Double Transgenic Mouse Brain,” Neurosci. 101:939-944 (2000); McGowan et al., “Amyloid Phenotype Characterization of Transgenic Mice Overexpressing Both Mutant Amyloid Precursor Protein and Mutant Presenilin 1 Transgenes,” Neurobiol. Dis. 6:231-244 (1999), which are hereby incorporated by reference in their entirety). The treatment was continued for four weeks (1 mg i.p. three times per week). Control age-matched APP^K670N/M671L/PS1^M146L mice received injections with vehicle only. There were six Aβ12-28P treated and six vehicle treated APP^K670N/M671L/PS1^M146L mice in this study.

[3] = test system: APP^K670N/M671L/PS1^M146L double Tg mice; assay: Aβ deposition in APP/PS1 double transgenic mice, 6E10 and Thioflavin-S histology with stereology; type: in vivo; details: for Aβ load lower compared to vehicle Tg controls: 1 mg i.p. three times per week, four weeks
Procedure: as §1
Animals were sacrificed a week after the last injection with an overdose of sodium pentobarbital (150 mg/kg i.p.) and transcardially perfused with 20 ml of heparinized 0.1M PBS followed by 4% buffered paraformaldehyde. The brain was dehydrated using increasing concentrations of sucrose in 0.1M PBS, pH 7.4 and sectioned using a freezing microtome (Leica SM2400) (Nussloch, Germany). Serial coronal sections (40 μm thick) were collected in 10 series. Each of the series contained a complete set of cross-sections along the rostro-caudal axis of the brain spaced by 400 μm. […] For Aβ immunohistochemistry, endogenous peroxidase activity was quenched in 0.3% H2O2 for 30 min and incubation with mAb 6E10 at 1:1000 dilution was followed by an anti-mouse IgG biotinylated secondary antibody (1:2000) and avidin-horseradish peroxidase complex (Vectastain MOM kit) (Vector Laboratories, Burlingame, Calif.). Sections were developed using 3,3′-diaminobenzidine kit with nickel ammonium sulfate (Vector Laboratories, Burlingame, Calif.).
Aβ deposition were quantified on one randomly selected section series which was stained with 6E10 mAb. Aβ deposits were measured in the brain cortex and in the hippocampus using a random, unbiased sampling scheme.

[4] = mouse

With `CC(=O)N[C@@H](C(=O)N[C@H](Cc1c[nH]cn1)C(=O)N[C@H](Cc1c[nH]cn1)C(=O)N[C@H](CCC(N)=O)C(=O)N[C@H](CCCCN)C(=O)N[C@H](CC(C)C)C(=O)N1CCC[C@@H]1C(=O)N[C@H](Cc1ccccc1)C(=O)N[C@H](Cc1ccccc1)C(=O)N[C@H](C)C(=O)N[C@H](CCC(=O)O)C(=O)N[C@H](CC(=O)O)C(=O)N[C@@H](C(=O)NCC(=O)N[C@H](CO)C(=O)N[C@H](CC(N)=O)C(=O)N[C@H](CCCCN)C(N)=O)C(C)C)C(C)C` [Aβ12-28P] (Ac-[dV][dH][dH][dQ][dK][dL][dP][dF][dF][dA][dE][dD][dV]G[dS][dN][dK]-NH2) the “areas under the curve, intravenous versus intranasal” value [1] was “no significant differences”, the “half-life after a single intravenous injection” value [1] was 1.03 h and the half-life ([1]; iv, half-life after a single intravenous injection) was 1.04 ± 0.3 h. The survival and condition ([2]; observed two more weeks, wild type C57BL6 mice) was “all remained alive and well”, the “hematoxylin and eosin histology of brain, heart, liver, gut, spleen, kidneys” value ([2]; wild type mice) was “did not reveal any pathology” and the “signs of toxicity (body weight, physical appearance, clinical signs, unprovoked behavior, response to external stimuli)” value ([2]; wild type mice) was “No changes were noted; also recorded: not noticed”. For the same compound, the “reduction in the number of medium-size plaques” value ([3]; cortex, >500 μm^2 and <1000 μm^2, p<0.05) was 53.5%, the “reduction in the number of large plaques” value ([3]; cortex, >1000 μm^2, non-significant) was 44% and the “reduction in the density of small plaques” value ([3]; cortex, cross-section area <500 μm^2, p<0.001) was 52.8%. The “Aβ load lower compared to vehicle Tg controls” value ([3]; cortex, p=0.0047) was 63.3%, the “density of fibrillar Aβ plaques on Thioflavin-S staining” value ([3]; four weeks of treatment) was “reduction in the density of Aβ plaques was also seen” and the “reduction in the density of large plaques” value ([3]; hippocampus, p<0.05) was 65.4%. The “reduction in the density of medium-size plaques” value ([3]; hippocampus, p<0.05) was 48.6%, the “reduction in the density of small plaques” value ([3]; hippocampus, p<0.05) was 37.6% and the “Aβ load lower compared to vehicle Tg controls” value ([3]; hippocampus, p=0.0048) was 61.9%. The “reduction in the numerical density of Aβ plaques” value ([3]; hippocampus, p=0.0047) was 46.3%, the “reduction in the numerical density of Aβ plaques” value ([3]; neocortex, p=0.0002) was 60.1% and the “reduction in Aβ load and plaque density versus control Tg animals, in words” value ([3]; one month of administration) was “over two fold; also recorded: significant reduction”. The BBB permeability [4] was “BBB permeable” and the “share found in the capillary depleted brain fraction” value ([4]; in vivo) was “More than 90%”.
